Data on one compound can be found in ChEMBL document CHEMBL4261547, “Bitopic fluorescent antagonists of the A2A adenosine receptor based on pyrazolo[4,3-e][1,2,4]triazolo[1,5-c]pyrimidin-5-amine functionalized congeners” (Medchemcomm, 2017).

Structures are written as SMILES.

The target in the experiment is T1, Adenosine receptor A1 (Homo sapiens) (UniProt P30542).
T1 sequence (whole entry): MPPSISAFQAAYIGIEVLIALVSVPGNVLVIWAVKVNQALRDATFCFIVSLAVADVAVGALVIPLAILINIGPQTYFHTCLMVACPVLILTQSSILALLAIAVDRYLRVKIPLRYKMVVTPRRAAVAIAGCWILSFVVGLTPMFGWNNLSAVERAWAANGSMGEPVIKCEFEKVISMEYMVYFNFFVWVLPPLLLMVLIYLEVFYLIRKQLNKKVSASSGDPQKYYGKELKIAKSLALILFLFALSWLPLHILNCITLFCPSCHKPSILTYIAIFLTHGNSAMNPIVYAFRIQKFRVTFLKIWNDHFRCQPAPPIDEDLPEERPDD
The experiment in a line: Binding affinity to recombinant human adenosine receptor A1 expressed in HEK293 cell membranes at 50 to 200 nM after 1 hr by FACS analysis relative to control.

Turning to `Nc1nc2c(cnn2CCCc2ccc(OCC(=O)NCCCCNC(=O)CCCCCNC(=O)COc3ccc(/C=C/C4=[N+]5C(=Cc6ccc(-c7cccs7)n6[B-]5(F)F)C=C4)cc3)cc2)c2nc(-c3ccco3)nn12`, the Activity is less than 25%.
